# Assay results from patent US8022029B2, “Fabric softening compositions comprising polymeric materials” (priority 2007, dated 2011).
# Key:
# [1] = Proportion of perfume extracted from esterquat aggregates to polymeric material fibers (dosing by HPLC); assay type: physicochemical; conditions: 16 hours
# Method: (§1) The capsules were then reformulated with a copolymer of polyether and polyurethane-polyurea (commercially available as Lycra) polymeric fiber material. […] The containers were shacked for 16 hours to allow the systems to equilibrate. The polymeric material was then removed, and the esterquat was tested for perfume molecule content (via dosing by HPLC).
# [2] = assay type: physicochemical
# Method: (§2) Polystyrene cross-linked with divinyl benzene was explored as the polymeric material. The partition coefficient of perfume molecules between such cross-linked polystyrene coated with an aminoplast shell (commercially available as Serdolit III) and esterquat was evaluated.
# [3] = assay type: physicochemical; remark: listed apart in the source
# Method: as §1, §2
# [4] = Table 4; cited from earlier work
# [5] = 1.0 g polymeric material in 100 g softener (3.6% esterquat, 0.38% perfume)
# [6] = 3.1 g polymeric material in 100 g softener (3.6% esterquat, 0.38% perfume)
# [7] = 5.0 g polymeric material in 100 g softener (3.6% esterquat, 0.38% perfume)
SMILES,"proportion of perfume absorbed by the polymeric material [1, 5]","proportion of perfume absorbed by the polymeric material [1, 6]","proportion of perfume absorbed by the polymeric material [1, 7]",Partition Coefficient of Polystyrene Material [2],Partition Coefficient of Copolymer of polyether and polyurethane [3],Log P [4]
"C=CCc1ccc(O)c(OC)c1 [Eugenol, eugenol]",0.24,0.45,0.57,6.7,1.0,–
"CCCCCCOC(=O)c1ccccc1O [Hexyl Salicylate, hexyl salicylate]",0.34,0.63,0.69,6.7,1.4,5.26
"C=CC(C)(O)CCC=C(C)C (stereo not shown) [Linalool, linalool]",–,–,–,–,–,2.43
"CC(C)=CCC/C(C)=C\CO [Nerol, nerol]",–,–,–,–,–,2.65
"CC(CCO)CCc1ccccc1 (stereo not shown) [Phenyl Hexanol, phenyl hexanol]",0.26,0.51,0.60,–,–,–
